For this experiment, the system named is endogenous and overexpressed GC in cell lysates. To be noted: after incubation with peptide.

Protocol: The artificial substrates were dissolved in sodium citrate buffer (0.2 M Na-citrate, 0.4% BSA, pH 4.6). All activity assays were performed at acid pH.
Cell lysate protein (20-200 μg) or recombinant protein (0.2 nmol GC/N370S or LAMAN) was incubated with 100 μL of 10 mM artificial absorbent substrate (4-nitrophenyl β-D-glucopyranoside or 4-nitrophenyl-N-acetyl-β-D-glucosaminide). The samples were incubated at 37° C. for 2 h to measure GC activity or for 5 h to assess LAMAN activity. The reaction was stopped by applying 500-1,000 μL of stop solution (0.4 M glycine, pH 10.4), and the absorbance was measured in a clear 96-well plate at 405 nm in a plate reader (Synergy HT; BioTek). Enzyme activities of cellular lysates were normalized to protein concentration (expressed in milliunits per milligram) and are shown relative to buffer control. Enzyme activities of recombinant proteins are shown as milliunits per milligram or are stated relative to buffer control.

Take “Biotin-Ttds-LREIIEAMLKAYQQKLFVTHTVDE [helix 5 peptide]”: the “enzymatic activity of endogenous and overexpressed GC in cell lysates” value is “could also be increased”.
